From ChEMBL document CHEMBL3120142 (J Med Chem, 2014)

Tests used:
Influenza A virus [1] = experiment: microbe, parasite or virus in culture; conditions: A/Berlin/55/08(H1N1), MDCK, 48 h
Influenza A virus [2] = conditions: mdck

| SMILES | EC50 (Influenza A virus [1]) [µM] | EC50 (Influenza A virus [2]) [µM] |
| --- | --- | --- |
| CCC(CC)O[C@@H]1C=C(C(=O)O)C[C@H](NC(C)=N)[C@H]1NC(C)=O | 4.82 |  |
| CCC(CC)O[C@@H]1C=C(C(=O)O)C[C@H](NC(=N)N)[C@H]1NC(C)=O | 3.31 |  |
| CCC(CC)O[C@@H]1C=C(C(=O)O)C[C@H](N)[C@H]1NC(C)=O [OSELTAMIVIR CARBOXYLATE] | > 100 |  |
| CC(=O)N[C@H]1[C@H]([C@H](O)[C@H](O)CO)OC(C(=O)O)=C[C@@H]1NC(=N)N [ZANAMIVIR] |  | 1.22 |
